Measurements reported in patent US5198552A, “Indole derivative having antiviral, interferon-inducing and immunomodulatory effects” (priority 1991, dated 1993).
“And” between values parts separate entries of the source, which are not always exact repeats. Equal entries are not always repeated.

Columns and labels:
[1] = test system: herpes simplex virus from antigen-type I L2 -strain; assay: Preventive action in generalized mouse herpes; parameters: species or system mice; settings: in vivo
[2] = Long-term per os toxicity, rats; format: in vivo; settings: per os 100 to 125 mg/kg during 6 months
[3] = test system: peritoneal macrophages; assay: Absorbing capacity of mouse peritoneal macrophages (neutral red); format: in vivo, mice; parameters: Absorbing Capacity, percent of control: concentration or dose not given beside the values
[4] = test system: Salmonella typhimurium; assay: Mutagenic activity on Salmonella typhimurium; settings: 50 to 1000 μm per disk
[5] = 1 day after single administration
[6] = 2 day after single administration

SMILES: CCOC(=O)c1c(CSc2ccccc2)n(C)c2cc(Br)c(O)c(CN(C)C)c12.Cl.O [preparation of the invention, ethyl 6-bromo-5-hydroxy-4-dimethylaminomethyl-1-methyl-2-phenylthiomethylindole-3-carboxylate hydrochloride monohydrate]
- prevention of death [1]: 40%
- Lethality ([1]; hydrochloride monohydrate): 60% and 75%
- Lethality: absolute animal number ([1]; hydrochloride monohydrate): 12/20 and 15/20
- The decrease of lethality ([1]; hydrochloride monohydrate): 40% and 25%
- pathological changes [2]: did not cause any pathological changes
- Absorbing Capacity of Peritoneal Macrophages [3, 5]: 27.7 ± 3.5 mg/6 × 10^6 cells
- Absorbing Capacity, percent of control [3, 5]: 125 ± 17%
- Absorbing Capacity of Peritoneal Macrophages [3, 6]: 33.6 ± 4.7 mg/6 × 10^6 cells
- Absorbing Capacity, percent of control [3, 6]: 147 ± 20.6%
- Absorbing Capacity of Peritoneal Macrophages ([3]; 3 day after single administration): 37.4 ± 3.7 mg/6 × 10^6 cells
- absorbing capacity of macrophages ([3]; by 2-3 days after a single administration, p<0.05): 164±13%
- stimulation of absorbing capacity of macrophages ([3]; in vivo): stimulates the absorbing capacity of macrophages to a greater extent than administration of levamisole
- effect on counts of macrophages washed off the peritoneal cavity ([3]; mouse, in vivo): no effect on counts of macrophages
- mutagenic activity [4]: no mutagenic activity
